The values that follow come from patent US3991202A, “Imidazolium salts” (Janssen Pharmaceutica N.V., priority 1974, dated 1976).

Assay in all cases: Antibacterial growth inhibition in phenol red dextrose broth
Holding throughout (format): cell-based

For test [1], the system named is Staphylococcus hemolyticus. Conditions: 168 h, Staph., tested at 100, 10, 1 μg/ml, read-out: Concentration in μ g for 100% Growth Inhibition. The procedure:
(§1) The tests on bacteria were performed on cultures on phenol red dextrose broth medium (Difco). By using decimal dilution techniques described for the tests for antifungal activity, test media containing 100 μg, 10 μg and 1 μg of imidazolium salt per milliliter of medium were obtained. The inoculum consisted of a platinum loop (5 mm diameter) from a 24 hour broth culture. Forty-eight hours after incubation, subcultures were made from each culture for the determination of antibacterial activity of the imidazolium salts. After seven days of incubation, observations were made to determine the presence or absence of bacterial growth.

The test system of a further test is Erysipelothrix insidiosa. Conditions: Erysipelothrix rhusiopathiae, 168 h; E. ins.; tested at 100, 10, 1 μg/ml; read-out: Concentration in μ g for 100% Growth Inhibition. As for the experimental part: as §1
A further test concerns Escherichia coli. Conditions: 168 h, E. coli, tested at 100, 10, 1 μg/ml, read-out: Concentration in μ g for 100% Growth Inhibition. The procedure:
as §1

Another test concerns Pseudomonas aeruginosa. Conditions: 168 h, Ps. aer., read-out: Concentration in μ g for 100% Growth Inhibition. The procedure:
as §1

Test [2] deals with Salmonella pullorum gallinarum. Conditions: Salmonella enterica, 168 h; Sp. G.; tested at 100, 10, 1 μg/ml; read-out: Concentration in μ g for 100% Growth Inhibition. The procedure:
as §1

A further test has as its system Streptococcus pyogenes. Conditions: 168 h, Strep., tested at 100, 10, 1 μg/ml, read-out: Concentration in μ g for 100% Growth Inhibition. The procedure: as §1

Read-outs that look alike come from different tables or passages of the source. Bounds are passed on as bounds.

For `Fc1ccc(CC[n+]2ccn(CC(OCc3ccc(Cl)cc3Cl)c3ccc(Cl)cc3Cl)c2)cc1.O.[Br-]` (stereo not drawn) [(CH2)2C6H4pF, 1-[2,4-Dichloro-β-(2,4-dichlorobenzyloxy)phenethyl]-3-(p-fluorophenethyl)imidazolium bromide hydrate], the MIC in test [1] is 1 µg/mL; in the test with Erysipelothrix insidiosa it was 10 µg/mL; with Escherichia coli, 100 µg/mL; in the test on Pseudomonas aeruginosa (tested at 100, 10, 1 μg/ml), 100 µg/mL; in test [2], 10 µg/mL; in the test with Streptococcus pyogenes, 1 µg/mL.
As for `O=C(C[n+]1ccn(CC(OCc2ccc(Cl)cc2Cl)c2ccc(Cl)cc2Cl)c1)Nc1ccc(F)cc1` (stereo not drawn) [CH2CONHC6H4pF, 1-[2,4-dichloro-β-(2,4-dichlorobenzyloxy)phenethyl]-3-[N-(p-fluorophenyl)carbamoylmethyl]imidazolium chloride], the MIC was 1 µg/mL in test [1]; 1 µg/mL in the test on Erysipelothrix insidiosa; 10 µg/mL in the test on Escherichia coli; 100 µg/mL in the test with Pseudomonas aeruginosa (tested at 100, 10, 1 μg/ml); 10 µg/mL in test [2]; 1 µg/mL in the test with Streptococcus pyogenes.
Consider `COc1ccc(CC[n+]2ccn(CC(OCc3ccc(Cl)cc3Cl)c3ccc(Cl)cc3Cl)c2)cc1.[Cl-]` (stereo not drawn) [(CH2)2C6H4pOCH3, 1-[2,4-dichloro-β-(2,4-dichlorobenzyloxy)phenethyl]-3-(p-methoxyphenethyl)imidazolium chloride], for which the MIC turned out to be 1 µg/mL in test [1]; 1 µg/mL in the test on Erysipelothrix insidiosa; 100 µg/mL with Escherichia coli; 100 µg/mL in the test with Pseudomonas aeruginosa (tested at 100, 10, 1 μg/ml); 10 µg/mL in test [2]; 1 µg/mL with Streptococcus pyogenes.
As to `Fc1ccc(C[n+]2ccn(CC(OCc3ccc(Cl)cc3Cl)c3ccc(Cl)cc3Cl)c2)cc1.[I-]` (stereo not drawn) [CH2C6H4pF, 1-[2,4-Dichloro-β-(2,4-dichlorobenzyloxy)phenethyl]-3-(p-fluorobenzyl)-imidazolium iodide], the MIC in test [1] was determined as 1 µg/mL; in the test on Erysipelothrix insidiosa, 10 µg/mL; with Escherichia coli, 100 µg/mL; in the test with Pseudomonas aeruginosa (tested at 100, 10, 1 μg/ml) it was 100 µg/mL; in test [2] it was 10 µg/mL; with Streptococcus pyogenes, 1 µg/mL.
As for `Cc1ccccc1NC(=O)C[n+]1ccn(CC(OCc2ccc(Cl)cc2Cl)c2ccc(Cl)cc2)c1` (stereo not drawn) [C6H4pCl/CH2C6H32,4(Cl)2/CH2CONHC6H4oCH3, 1-[p-Chloro-β-(2,4-dichlorobenzyloxy)phenethyl]-3-(N-o-tolylcarbamoylmethyl)imidazolium chloride hydrate], the MIC in test [1] came to 100 µg/mL; in the test on Erysipelothrix insidiosa, 1 µg/mL; in the test with Escherichia coli, 100 µg/mL; in the test on Pseudomonas aeruginosa (tested at 100, 10, 1 μg/ml), 100 µg/mL; in test [2], 10 µg/mL; with Streptococcus pyogenes, 1 µg/mL.
For `O=C(C[n+]1ccn(CC(OCc2ccc(Cl)cc2Cl)c2ccc(Cl)cc2Cl)c1)Nc1ccc(Cl)cc1` (stereo not drawn) [CH2CONHC6H4p(Cl), 1-[N-(p-chlorophenyl)carbamoylmethyl]-3-[2,4-dichloro-β-(2,4-dichlorobenzyloxy)phenethyl]imidazolium chloride hydrate], the MIC in test [1] was found to be 10 µg/mL; in the test on Erysipelothrix insidiosa, 1 µg/mL; in the test on Escherichia coli, 10 µg/mL; with Pseudomonas aeruginosa (tested at 100, 10, 1 μg/ml), 100 µg/mL; in test [2], 100 µg/mL; in the test with Streptococcus pyogenes it was 1 µg/mL.
As to `Clc1ccc(COC(C[n+]2ccn(Cc3ccccc3)c2)c2ccccc2)cc1.[Br-]` (stereo not drawn) [C6H5/CH2C6H4pCl/CH2C6H5, 1-Benzyl-3-[β-(p-chlorobenzyloxy)phenethyl]imidazolium bromide], the MIC in test [1] was 10 µg/mL; in the test with Erysipelothrix insidiosa it was 100 µg/mL; in the test on Escherichia coli it was 100 µg/mL; in the test with Pseudomonas aeruginosa (growth observed at 100 μg/ml), more than 100 µg/mL; in test [2], 100 µg/mL; in the test with Streptococcus pyogenes it was 10 µg/mL.
As for `O=C(C[n+]1ccn(CC(OCc2ccc(Cl)cc2)c2ccc(Cl)cc2Cl)c1)c1ccc(F)cc1.[Cl-]` (stereo not drawn) [2,4(Cl)2C6H3/CH2C6H4pCl/CH2COC6H4pF, 1-[2,4-Dichloro-β-(p-chlorobenzyloxy)phenethyl]-3-(p-fluorophenacyl)imidazolium chloride], the MIC amounted to 1 µg/mL in test [1]; 1 µg/mL with Erysipelothrix insidiosa; 100 µg/mL in the test with Escherichia coli; 100 µg/mL with Pseudomonas aeruginosa (tested at 100, 10, 1 μg/ml); 10 µg/mL in test [2]; 1 µg/mL in the test on Streptococcus pyogenes.
